Laboratory results as given in US4216128A, “Enkephalin analogues” (American Home Products Corporation, priority 1979, dated 1980).
Non-standard residues stand in square brackets, D forms with d. Residues, ends and D or L forms follow the SMILES beside them.

How the values were obtained:
rats = conditions: injection in the brain ventricle, fully reversible by naloxone; cited from earlier work
opiate receptor [1] = conditions: brain homogenates; cited from earlier work
guinea pig ileum = conditions: cited from earlier work
mouse vas deferens = conditions: cited from earlier work
[2] = intravenous administration; cited from earlier work
[3] = peripheral administration; cited from earlier work
[4] = Coy et al.; cited from earlier work
[5] = intracerebroventricular; cited from earlier work
CF-1 mice = test: phenylbenzoquinone induced writhing test (analgesia); assay type: in vivo
opiate receptor [6] = test: relative displacement potency, procedure of Chang et al.; assay type: binding; conditions: relative to morphine

In the case of CC(C)C[C@H](NC(=O)[C@H](Cc1ccccc1)NC(=O)CNC(=O)CNC(=O)[C@@H](N)Cc1ccc(O)cc1)C(=O)O [leucine-enkephalin, H-Tyr-Gly-Gly-Phe-Leu-OH], the analgesia (rats) is given as “profound analgesia”.

For CSCC[C@H](NC(=O)[C@H](Cc1ccccc1)NC(=O)CNC(=O)CNC(=O)[C@@H](N)Cc1ccc(O)cc1)C(=O)O [methionine-enkephalin, H-Tyr-Gly-Gly-Phe-Met-OH], the “inhibition of stereospecific receptor binding of 3H-naloxone” value (opiate receptor [1]) is listed as “inhibit”, the “block of electrically evoked contractions” value (guinea pig ileum) is listed as “block electrically evoked contractions” and the “block of electrically evoked contractions” value (mouse vas deferens) is listed as “block electrically evoked contractions”. For the same molecule, the analgesia (rats) was “profound analgesia”.

In the case of CSCC[C@@H](NC(=O)[C@@H](N)Cc1ccc(O)cc1)C(=O)NCC(=O)N[C@@H](Cc1ccccc1)C(=O)N1CCC[C@H]1C(N)=O [Tyr-D-Met-Gly-Phe-Pro-NH2] (H-Y[dM]GFP-NH2), the “antinociceptive potency relative to morphine” value [2] is given as 5.5 times more potent than morphine.

In the case of CSCC[C@H](NC(=O)[C@H](Cc1ccccc1)NC(=O)CNC(=O)[C@@H](C)NC(=O)[C@@H](N)Cc1ccc(O)cc1)C(N)=O [Tyr-D-Ala-Gly-Phe-Met-amide], the “activity when administered peripherally” value [3] is listed as “inactive”.

In the case of D-Met^5 enkephalin, the “activity relative to Met enkephalin” value [4] is listed as “one tenth”.

In the case of Tyr-D-Ala-Gly-Phe-D-Leu, the “activity when administered intracerebroventricularly” value [5] is listed as “activity”.

For CN[C@@H](Cc1ccc(O)cc1)C(=O)N[C@H](CS)C(=O)NCC(=O)N(C)[C@@H](Cc1ccccc1)C(=O)N[C@H](CC(N)=O)C(N)=O [Example 4, N-Methyl-L-tyrosyl-D-cysteinyl-glycyl-N-methyl-L-phenylalanyl-D-asparagine amide], the “percent analgesia after oral administration” value (CF-1 mice; oral dose of 50 mg/kg, 30 minutes) was 10%, the “ED50 (analgesia, absence of writhing)” value (CF-1 mice; subcutaneous administration, at 15 minutes, mice) was 0.64 (0.29-1.4) mg/kg and the relative displacement potency (opiate receptor [6]) was “two”.
